Target: T1, S1P lyase (Mus musculus, UniProt Q8R0X7)
T1 construct: The extirpated thymus was crushed; from tissue; host or cells: thymus of BALB/c mice (thymus extract)
T1 sequence (Q8R0X7 1-568): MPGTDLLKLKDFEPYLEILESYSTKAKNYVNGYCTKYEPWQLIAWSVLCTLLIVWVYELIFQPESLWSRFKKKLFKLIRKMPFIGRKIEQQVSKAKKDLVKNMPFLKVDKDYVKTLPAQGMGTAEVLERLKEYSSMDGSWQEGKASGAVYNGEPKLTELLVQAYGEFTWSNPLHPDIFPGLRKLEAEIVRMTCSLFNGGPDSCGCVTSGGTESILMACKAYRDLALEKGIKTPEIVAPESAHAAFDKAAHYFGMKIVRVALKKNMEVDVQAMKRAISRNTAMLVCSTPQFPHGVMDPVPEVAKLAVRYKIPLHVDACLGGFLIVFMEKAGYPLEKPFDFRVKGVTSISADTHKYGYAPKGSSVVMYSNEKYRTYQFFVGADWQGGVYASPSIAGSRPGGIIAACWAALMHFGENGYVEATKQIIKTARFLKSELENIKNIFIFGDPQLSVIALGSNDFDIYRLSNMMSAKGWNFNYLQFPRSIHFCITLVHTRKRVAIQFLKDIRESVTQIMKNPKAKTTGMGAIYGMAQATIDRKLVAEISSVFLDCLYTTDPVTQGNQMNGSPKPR
Assay: S1P lyase inhibitory capacity in mice (thymus extract after oral dosing)
Format: in vivo
Conditions: BALB/c mice, single oral dose, S1P lyase activity of thymus extract with [3H]dhS1P
Protocol: Male BALB/c mice at age 6 weeks were purchased from Charles River Laboratories Japan Inc. Mice that had reached age 7 weeks after 1-week acclimation were used for the experiment. A group of 5 animals was used for the experiment. The necessary amount of the analyte was weighed, and subsequently suspended in a 0.5% MC solution using a mortar and a pestle. The solution to be administered was prepared so as to be 10 mL per 1 kg of body weight. The prepared compound solution was administered orally in a single dose using a stomach tube.
Dipotassium dihydrogen ethylenediaminetetraacetate (EDTA-2K, Nacalai Tesque, Inc.) was dissolved with water for injection so as to be 5% (5% EDTA-2K solution). […] At that time, the thymus was also extirpated. The obtained blood was handled under the condition of room temperature until measurement. […]
The extirpated thymus was crushed by means of either a method using zirconia beads in the presence of 500 μl, of a homogenization buffer (50 mM HEPES-NaOH (pH=7.4), 0.15 M NaCl, 10% Glycerol, 1 mM EDTA, 1 mM DTT, complete protease inhibitor cocktail (Roche, #4693132)), or a method using Potter-Elvehjem type homogenizer after mincing. […] After the proteins of the supernatant were quantified with Bradford method, the supernatant was instantly frozen with liquid nitrogen, and subsequently stored at −80° C. […]

SMILES | S1P lyase inhibition in mice
CCOCn1cc(CO)nc1C(C)=O [Example 1, 1-(1-Ethoxymethyl-4-hydroxymethyl-1H-imidazol-2-yl)ethanone] | inhibited S1P lyase in mice
COCn1cc(CO)nc1C(C)=O [Example 5, 1-(4-Hydroxymethyl-1-methoxymethyl-1H-imidazol-2-yl)ethanone] | inhibited S1P lyase in mice

— patent US8653126B2, “Imidazole derivative” (Daiichi Sankyo Company, Limited, priority 2010, dated 2014)
